# ChEMBL document CHEMBL4725279, “Design and synthesis of peptide-based chimeric molecules to induce degradation of the estrogen and androgen receptors” (Bioorg Med Chem, 2020)
# What was measured:
# Type in all cases: cell-based
# [1] = target: T1, von Hippel-Lindau disease tumor suppressor/Estrogen receptor (Homo sapiens) (UniProt P03372+P40337); assay: Protac activity at VHL/ERalpha in VHL siRNA-transfected human MCF7 cells assessed as induction of ERalpha protein degradation by measuring ERalpha protein level at 20 uM incubated for 8 hrs by western blot analysis relative to lamin B
# T1 sequence (P03372 whole entry, looked up): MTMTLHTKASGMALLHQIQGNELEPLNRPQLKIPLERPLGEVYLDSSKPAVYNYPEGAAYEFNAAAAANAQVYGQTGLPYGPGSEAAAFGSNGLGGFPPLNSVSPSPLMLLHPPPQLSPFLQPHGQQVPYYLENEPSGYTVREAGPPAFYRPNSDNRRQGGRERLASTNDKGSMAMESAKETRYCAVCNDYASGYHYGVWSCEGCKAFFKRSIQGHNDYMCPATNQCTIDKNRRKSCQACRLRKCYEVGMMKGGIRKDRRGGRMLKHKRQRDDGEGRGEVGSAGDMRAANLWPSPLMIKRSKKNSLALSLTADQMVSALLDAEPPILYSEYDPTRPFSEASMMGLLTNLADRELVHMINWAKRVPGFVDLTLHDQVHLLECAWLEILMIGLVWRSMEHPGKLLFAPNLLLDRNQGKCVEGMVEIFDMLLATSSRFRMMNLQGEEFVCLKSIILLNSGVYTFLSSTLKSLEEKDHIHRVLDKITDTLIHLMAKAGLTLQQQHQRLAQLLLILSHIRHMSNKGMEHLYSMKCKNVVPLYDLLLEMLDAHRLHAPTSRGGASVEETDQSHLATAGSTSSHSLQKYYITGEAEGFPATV
# T1 sequence (P40337 whole entry, looked up): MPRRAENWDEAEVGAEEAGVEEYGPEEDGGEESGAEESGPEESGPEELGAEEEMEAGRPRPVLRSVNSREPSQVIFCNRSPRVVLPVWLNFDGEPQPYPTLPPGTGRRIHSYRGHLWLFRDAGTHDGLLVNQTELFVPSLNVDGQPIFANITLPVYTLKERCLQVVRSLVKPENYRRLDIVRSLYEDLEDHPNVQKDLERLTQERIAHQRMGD
# [2] = target: T2, von Hippel-Lindau disease tumor suppressor/Androgen receptor (Homo sapiens) (UniProt P10275+P40337); assay: Protac activity at VHL/AR in human MCF7 cells assessed as induction of AR protein degradation by measuring AR protein level at 10 uM incubated for 8 hrs by western blot analysis relative to lamin B
# T2 sequence (P10275 whole entry, looked up): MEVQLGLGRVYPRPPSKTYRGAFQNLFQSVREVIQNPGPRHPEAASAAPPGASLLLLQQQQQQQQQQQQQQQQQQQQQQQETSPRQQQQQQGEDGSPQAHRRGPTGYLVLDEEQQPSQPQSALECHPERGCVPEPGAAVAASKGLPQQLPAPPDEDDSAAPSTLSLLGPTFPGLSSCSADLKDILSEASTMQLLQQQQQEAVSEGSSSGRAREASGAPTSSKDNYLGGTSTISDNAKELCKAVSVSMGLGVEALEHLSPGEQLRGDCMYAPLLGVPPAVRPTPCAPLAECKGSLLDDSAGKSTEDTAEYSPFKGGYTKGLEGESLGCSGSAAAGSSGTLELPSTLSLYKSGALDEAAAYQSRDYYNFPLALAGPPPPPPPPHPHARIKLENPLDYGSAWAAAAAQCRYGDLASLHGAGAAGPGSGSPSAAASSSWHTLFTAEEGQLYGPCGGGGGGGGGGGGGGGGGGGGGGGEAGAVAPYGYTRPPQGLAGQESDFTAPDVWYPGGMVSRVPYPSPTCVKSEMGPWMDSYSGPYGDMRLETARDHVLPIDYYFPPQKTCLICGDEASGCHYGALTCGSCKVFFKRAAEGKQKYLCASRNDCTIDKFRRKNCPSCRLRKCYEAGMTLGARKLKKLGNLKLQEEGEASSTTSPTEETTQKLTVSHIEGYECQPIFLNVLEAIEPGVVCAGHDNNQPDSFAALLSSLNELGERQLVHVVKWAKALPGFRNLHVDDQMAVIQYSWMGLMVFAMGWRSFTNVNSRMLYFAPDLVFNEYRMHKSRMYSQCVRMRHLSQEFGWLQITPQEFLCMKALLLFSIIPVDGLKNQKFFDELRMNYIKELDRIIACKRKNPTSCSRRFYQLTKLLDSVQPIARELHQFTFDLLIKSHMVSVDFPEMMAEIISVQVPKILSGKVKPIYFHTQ
# T2 sequence (P40337 whole entry, looked up): as the sequence (P40337 whole entry, looked up) above
# [3] = target: T2, von Hippel-Lindau disease tumor suppressor/Androgen receptor (Homo sapiens); assay: Protac activity at VHL/AR in human MCF7 cells assessed as induction of AR protein degradation by measuring AR protein level at 20 uM incubated for 8 hrs in presence of ubiquitin activating inhibitor MLN7243 by western blot analysis relative to lamin B
# [4] = target: T1, von Hippel-Lindau disease tumor suppressor/Estrogen receptor (Homo sapiens); assay: Protac activity at VHL/ERalpha in human MCF7 cells assessed as induction of ERalpha protein degradation by measuring ERalpha protein level at 20 uM incubated for 8 hrs in presence of ubiquitin activating inhibitor MLN7243 by western blot analysis relative to lamin B
# [5] = target: T2, von Hippel-Lindau disease tumor suppressor/Androgen receptor (Homo sapiens); assay: Protac activity at VHL/AR in human MCF7 cells assessed as induction of AR protein degradation by measuring AR protein level at 20 uM incubated for 8 hrs by western blot analysis relative to lamin B
# [6] = target: T3, von Hippel-Lindau disease tumor suppressor/Aryl hydrocarbon receptor (Homo sapiens, UniProt P35869+P40337); assay: Protac activity at VHL/AhR in human MCF7 cells assessed as induction of AhR protein degradation by measuring AhR protein level at 20 uM incubated for 8 hrs by western blot analysis relative to lamin B; settings: mcf7, 8 h
# T3 sequence (P35869 whole entry): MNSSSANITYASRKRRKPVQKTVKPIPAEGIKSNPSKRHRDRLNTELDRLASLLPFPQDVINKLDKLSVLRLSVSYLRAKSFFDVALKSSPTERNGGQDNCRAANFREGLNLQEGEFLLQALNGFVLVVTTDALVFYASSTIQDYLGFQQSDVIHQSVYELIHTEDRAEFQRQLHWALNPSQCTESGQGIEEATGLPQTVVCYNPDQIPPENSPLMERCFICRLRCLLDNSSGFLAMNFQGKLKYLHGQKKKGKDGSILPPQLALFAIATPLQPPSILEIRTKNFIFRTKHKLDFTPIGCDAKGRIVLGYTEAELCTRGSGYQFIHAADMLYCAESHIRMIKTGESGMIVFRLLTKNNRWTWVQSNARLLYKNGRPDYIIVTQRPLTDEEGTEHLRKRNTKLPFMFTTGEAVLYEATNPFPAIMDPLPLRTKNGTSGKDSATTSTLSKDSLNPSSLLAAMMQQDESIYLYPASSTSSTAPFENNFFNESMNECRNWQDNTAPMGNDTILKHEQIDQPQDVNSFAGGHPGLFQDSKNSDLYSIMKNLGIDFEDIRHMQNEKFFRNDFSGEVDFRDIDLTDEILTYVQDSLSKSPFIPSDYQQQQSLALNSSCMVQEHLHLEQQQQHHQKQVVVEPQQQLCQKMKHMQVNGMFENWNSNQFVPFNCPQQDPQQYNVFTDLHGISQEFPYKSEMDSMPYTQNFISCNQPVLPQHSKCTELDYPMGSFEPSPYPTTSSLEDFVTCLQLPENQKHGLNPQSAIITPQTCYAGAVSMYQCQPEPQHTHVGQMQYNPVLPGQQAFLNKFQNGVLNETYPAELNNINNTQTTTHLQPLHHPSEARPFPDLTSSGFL
# T3 sequence (P40337 whole entry): as the sequence (P40337 whole entry, looked up) above
# [7] = target: T1, von Hippel-Lindau disease tumor suppressor/Estrogen receptor (Homo sapiens); assay: Protac activity at VHL/ERalpha in human MCF7 cells assessed as induction of ERalpha protein degradation by measuring ERalpha protein level at 20 uM incubated for 8 hrs in presence of proteasome inhibitor, MG132 by western blot analysis relative to lamin B
# [8] = target: T3, von Hippel-Lindau disease tumor suppressor/Aryl hydrocarbon receptor; assay: Protac activity at VHL/AhR in human MCF7 cells assessed as induction of AhR protein degradation by measuring AhR protein level at 20 uM incubated for 8 hrs in presence of proteasome inhibitor, MG132 by western blot analysis relative to lamin B; settings: mcf7, 8 h
# [9] = target: T3, von Hippel-Lindau disease tumor suppressor/Aryl hydrocarbon receptor; assay: Protac activity at VHL/AhR in human MCF7 cells assessed as induction of AhR protein degradation by measuring AhR protein level at 10 uM incubated for 8 hrs by western blot analysis relative to lamin B; settings: mcf7, 8 h
# [10] = target: T2, von Hippel-Lindau disease tumor suppressor/Androgen receptor (Homo sapiens); assay: Protac activity at VHL/AR in human MCF7 cells assessed as induction of AR protein degradation by measuring AR protein level at 10 uM incubated for 24 hrs by western blot analysis relative to lamin B
# [11] = target: T1, von Hippel-Lindau disease tumor suppressor/Estrogen receptor (Homo sapiens); assay: Protac activity at VHL/ERalpha in human MCF7 cells assessed as induction of ERalpha protein degradation by measuring ERalpha protein level at 20 uM incubated for 24 hrs by western blot analysis relative to lamin B
# [12] = target: T2, von Hippel-Lindau disease tumor suppressor/Androgen receptor (Homo sapiens); assay: Protac activity at VHL/AR in human MCF7 cells assessed as induction of AR protein degradation by measuring AR protein level at 20 uM incubated for 24 hrs by western blot analysis relative to lamin B
# [13] = target: T2, von Hippel-Lindau disease tumor suppressor/Androgen receptor (Homo sapiens); assay: Protac activity at VHL/AR in human MCF7 cells assessed as induction of AR protein degradation by measuring AR protein level at 5 uM incubated for 8 hrs by western blot analysis relative to lamin B
# [14] = target: T3, von Hippel-Lindau disease tumor suppressor/Aryl hydrocarbon receptor; assay: Protac activity at VHL/AhR in human MCF7 cells assessed as induction of AhR protein degradation by measuring AhR protein level at 20 uM incubated for 8 hrs in presence of ubiquitin activating inhibitor MLN7243 by western blot analysis relative to lamin B; settings: mcf7, 8 h
# [15] = target: T2, von Hippel-Lindau disease tumor suppressor/Androgen receptor (Homo sapiens); assay: Protac activity at VHL/AR in human MCF7 cells assessed as induction of AR protein degradation incubated for 8 to 24 hrs by western blot analysis; settings: time hrs 8-24
# [16] = target: T2, von Hippel-Lindau disease tumor suppressor/Androgen receptor (Homo sapiens); assay: Protac activity at VHL/AR in VHL siRNA-transfected human MCF7 cells assessed as induction of AR protein degradation by measuring AR protein level at 20 uM incubated for 8 hrs by western blot analysis relative to lamin B
# [17] = target: T3, von Hippel-Lindau disease tumor suppressor/Aryl hydrocarbon receptor; assay: Protac activity at VHL/AhR in human MCF7 cells assessed as induction of AhR protein degradation by measuring AhR protein level at 10 uM incubated for 24 hrs by western blot analysis relative to lamin B; settings: mcf7, 24 h
# [18] = target: T1, von Hippel-Lindau disease tumor suppressor/Estrogen receptor (Homo sapiens); assay: Protac activity at VHL/ERalpha in human MCF7 cells assessed as induction of ERalpha protein degradation by measuring ERalpha protein level at 10 uM incubated for 24 hrs by western blot analysis relative to lamin B
# [19] = target: T1, von Hippel-Lindau disease tumor suppressor/Estrogen receptor (Homo sapiens); assay: Protac activity at VHL/ERalpha in human MCF7 cells assessed as induction of ERalpha protein degradation by measuring ERalpha protein level at 5 uM incubated for 24 hrs by western blot analysis relative to lamin B
# [20] = target: T3, von Hippel-Lindau disease tumor suppressor/Aryl hydrocarbon receptor; assay: Protac activity at VHL/AhR in human MCF7 cells assessed as induction of AhR protein degradation by measuring AhR protein level at 20 uM incubated for 24 hrs by western blot analysis relative to lamin B; settings: mcf7, 24 h
# [21] = target: T3, von Hippel-Lindau disease tumor suppressor/Aryl hydrocarbon receptor; assay: Protac activity at VHL/AhR in human MCF7 cells assessed as induction of AhR protein degradation by measuring AhR protein level at 5 uM incubated for 8 hrs by western blot analysis relative to lamin B; settings: mcf7, 8 h
# [22] = target: T1, von Hippel-Lindau disease tumor suppressor/Estrogen receptor (Homo sapiens); assay: Protac activity at VHL/ERalpha in human MCF7 cells assessed as induction of ERalpha protein degradation incubated for 8 to 24 hrs by western blot analysis; settings: time hrs 8-24
# [23] = target: T1, von Hippel-Lindau disease tumor suppressor/Estrogen receptor (Homo sapiens); assay: Protac activity at VHL/ERalpha in human MCF7 cells assessed as induction of ERalpha protein degradation by measuring ERalpha protein level at 5 uM incubated for 8 hrs by western blot analysis relative to lamin B
# [24] = target: T3, von Hippel-Lindau disease tumor suppressor/Aryl hydrocarbon receptor; assay: Protac activity at VHL/AhR in human MCF7 cells assessed as induction of AhR protein degradation by measuring AhR protein level at 5 uM incubated for 24 hrs by western blot analysis relative to lamin B; settings: mcf7, 24 h
# [25] = target: T1, von Hippel-Lindau disease tumor suppressor/Estrogen receptor (Homo sapiens); assay: Protac activity at VHL/ERalpha in human MCF7 cells assessed as induction of ERalpha protein degradation by measuring ERalpha protein level at 10 uM incubated for 8 hrs by western blot analysis relative to lamin B
# [26] = target: T1, von Hippel-Lindau disease tumor suppressor/Estrogen receptor (Homo sapiens); assay: Protac activity at VHL/ERalpha in human MCF7 cells assessed as induction of ERalpha protein degradation by measuring ERalpha protein level at 20 uM incubated for 8 hrs by western blot analysis relative to lamin B
# [27] = target: T2, von Hippel-Lindau disease tumor suppressor/Androgen receptor (Homo sapiens); assay: Protac activity at VHL/AR in human MCF7 cells assessed as induction of AR protein degradation by measuring AR protein level at 20 uM incubated for 8 hrs in presence of proteasome inhibitor, MG132 by western blot analysis relative to lamin B
# [28] = target: T2, von Hippel-Lindau disease tumor suppressor/Androgen receptor (Homo sapiens); assay: Protac activity at VHL/AR in human MCF7 cells assessed as induction of AR protein degradation by measuring AR protein level at 5 uM incubated for 24 hrs by western blot analysis relative to lamin B
smiles,measurement,setting,value
CC[C@H](C)[C@@H]1NC(=O)[C@H](NC(=O)[C@@H](N)CCCCNC(=O)CCCCC(=O)NCCOCCOCCOCC(=O)N[C@H](C(=O)N2C[C@H](O)C[C@H]2C(=O)NCc2ccc(-c3scnc3C)cc2)C(C)(C)C)CSSC[C@@H](C(=O)N[C@@H](CCCNC(=N)N)C(=O)N[C@@H](CC(C)(C)C)C(=O)N[C@@H](CC(C)C)C(=O)N[C@@H](CCC(N)=O)C(=O)NCC(=O)NCC(=O)NCC(=O)N[C@@H](CCCNC(=N)N)C(=O)N[C@@H](CCCNC(=N)N)C(=O)N[C@@H](CCCNC(=N)N)C(=O)N[C@@H](CCCNC(=N)N)C(=O)N[C@@H](CCCNC(=N)N)C(=O)N[C@@H](CCCNC(=N)N)C(=O)N[C@@H](CCCNC(=N)N)C(N)=O)NC(=O)[C@H](CC(C)C)NC1=O,Activity,[1],84%
same,Activity,[2],75%
same,Activity,[3],102%
same,Activity,[4],108%
same,Activity,[5],54%
same,Activity,[6],105%
same,Activity,[7],92%
same,Activity,[8],113%
same,Activity,[9],105%
same,Activity,[10],103%
same,Activity,[11],57%
same,Activity,[12],90%
same,Activity,[13],92%
same,Activity,[14],101%
same,Activity,[15],Dose-dependent effect
same,Activity,[16],98%
same,Activity,[17],100%
same,Activity,[18],76%
same,Activity,[19],86%
same,Activity,[20],97%
same,Activity,[21],84%
same,Activity,[22],Dose-dependent effect
same,Activity,[23],93%
same,Activity,[24],83%
same,Activity,[25],84%
same,Activity,[26],64%
same,Activity,[27],97%
same,Activity,[28],97%
